Assays:
LNP zeta potential = format: physicochemical; conditions: mRNA LNP
Excerpt: Nanoparticle compositions can be characterized by various methods. For example, the morphology and size distribution of nanoparticle compositions can be examined using microscopy (e.g., transmission electron microscopy or scanning electron microscopy). The zeta potential can be measured using dynamic light scattering or potentiometric titration. Dynamic light scattering can also be used to determine particle size. Instruments such as the Zetasizer Nano ZS (Malvern Instruments Ltd., Malvern, Worcestershire, UK) can also be used to measure multiple characteristics of nanoparticle compositions, such as particle size, polydispersity index, and zeta potential.
[…]: The zeta potential of the nanoparticle composition can indicate the electrophoretic potential of the composition. For example, zeta potential may describe the surface charge of the nanoparticle composition. Nanoparticle compositions with relatively low positive or negative charges are generally desirable, as materials with higher charges may interact undesirably with cells, tissues, and other components in the body. In some embodiments, the zeta potential of the nanoparticle composition may be about −10 mV to about +20 mV, about −10 mV to about +15 mV, about −10 mV to about +10 mV, about −10 mV to about +5 mV, about −10 mV to about 0 mV, about −10 mV to about −5 mV, about −5 mV to about +20 mV, about −5 mV to about +15 mV, about −5 mV to about +10 mV, about −5 mV to about +5 mV, about −5 mV to about 0 mV, about 0 mV to about +20 mV, about 0 mV to about +15 mV, about 0 mV to about +10 mV, about 0 mV to about +5 mV, about +5 mV to about +20 mV, about +5 mV to about +15 mV, or about +5 mV to about +10 mV.

[1] = LNP size and PDI by dynamic light scattering; format: physicochemical; conditions: mRNA LNP, cationic lipid/DSPC/cholesterol/PEG-lipid 50:10:38.5:1.5
Description: (§1) In summary, the cationic lipid described herein, DSPC, cholesterol, and PEG-lipid were dissolved in ethanol at a molar ratio of 50:10:38.5:1.5 and diluted in 10 mM to 50 mM citrate buffer at pH 4 with mRNA. Using a microfluidic device, the lipid ethanol solution was mixed with mRNA aqueous solution at a volume ratio of 1:3 and a total flow rate ranging from 6-30 mL/min, preparing LNPs with a total lipid to mRNA weight ratio of approximately 10:1 to 30:1. Ethanol was removed by dialysis and replaced with PBS. Finally, the lipid nanoparticles were filtered through a 0.22 μm sterile filter.
(§2) The size of lipid nanoparticles was measured by dynamic light scattering using a Malvern Zetasizer Nano ZS (Malvern, UK) with a 90° scattering detection mode. The encapsulation efficiency of lipid nanoparticles was determined using the Quant-it Ribogreen RNA Quantitation Kit (Thermo Fisher Scientific, UK) according to the manufacturer's instructions. The apparent pKa of LNP formulations correlates with the delivery efficiency of nucleic acids by LNPs in vivo. The apparent pKa ranges from approximately 5 to 7. An analysis based on fluorescence from 2-(p-tolylamino)-6-naphthalenesulfonic acid (TNS) was used to determine the apparent pKa of formulations. As described above, LNP formulations containing cationic lipid/DSPC/cholesterol/DMG-PEG (50/10/38.5/1.5 mol %) in PBS were prepared. A 300 μM stock solution of TNS in distilled water was prepared. LNP formulations were diluted to 0.1 mg/mL total lipid in 3 mL of buffer solution containing 50 mM sodium citrate, 50 mM sodium phosphate, 50 mM sodium borate, and 30 mM sodium chloride (pH ranged from 3 to 9). […] S-shaped curve best-fit analysis was applied to the fluorescence data, and the pKa value was measured as the pH value producing half-maximal fluorescence intensity.

mice = test: Bioluminescent study, intramuscular injection of F-luc mRNA LNPs; format: in vivo; conditions: F-luc luminescence flux normalized to MC3; 0.25 mg/kg intramuscular, mice n=3, 6-hour time point
Summary of the method: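 Mice (n=3) received LNP-formulated F-luc mRNA at 0.25 mg/kg intramuscularly. Bioluminescence was read 6 h after dosing. Test LNPs were made with an MC3 formulation, and PBS served as control in some groups.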

[2] = LNP encapsulation efficiency (Quant-it Ribogreen); format: physicochemical; conditions: mRNA LNP, cationic lipid/DSPC/cholesterol/PEG-lipid 50:10:38.5:1.5
Excerpt: Encapsulation Efficiency: The encapsulation efficiency of a therapeutic and/or prophylactic agent refers to the amount of the therapeutic and/or prophylactic agent encapsulated within or otherwise associated with the nanoparticle composition relative to the initial amount provided during preparation. Encapsulation efficiency is desirably high (such as close to 100%). Encapsulation efficiency can be measured, for example, by comparing the amount of therapeutic and/or prophylactic agent in a solution containing the nanoparticle composition before and after disruption of the nanoparticle composition using one or more organic solvents or detergents. Fluorescence can be used to measure the amount of free therapeutic and/or prophylactic agent (e.g., RNA) in solution. For the nanoparticle compositions described herein, the encapsulation efficiency of the therapeutic and/or prophylactic agent may be at least 50%, such as 50%, 55%, 60%, 65%, 70%, 75%, 80%, 85%, 90%, 91%, 92%, 93%, 94%, 95%, 96%, 97%, 98%, 99%, or 100%. In some embodiments, the encapsulation efficiency may be at least 80%. In certain embodiments, the encapsulation efficiency may be at least 90%.
as §1, §2

SMILES	Zeta potential (mV) (LNP zeta potential)	PDI [1]	Size (nm) [1] [nm]	Encapsulation efficiency (%) [2] [%]	Relative Total flux (mice)
CCCCCCCC(C(=O)NCCCCCCCCCC(=O)OC(CCCCCC)CCCCCC)N(CCNCCO)C(=O)CCCCCCCCCC(=O)OC(CCCCCC)CCCCCC (centres unmarked) [Compound B6]	−0.39	0.183	61.81	75.47	A (A: ≥2)
CCCCCCCC(C(=O)NCCCCCCCCCC(=O)OC(CCCCCC)CCCCCC)N(CCN(CO)CO)C(=O)CCCCCCCCCC(=O)OC(CCCCCC)CCCCCC (centres unmarked) [Compound B7]	−2.80	0.116	58.86	85.36	A (A: ≥2)
CCCCCCCC(C(=O)NCCCCCCCCCC(=O)OC(CCCCCC)CCCCCC)N(CCN(CCO)C1CCCCC1)C(=O)CCCCCCCCCC(=O)OC(CCCCCC)CCCCCC (centres unmarked) [Compound B15]	2.43	0.182	87.64	95.93	A (A: ≥2)
CCCCCCCC(C(=O)NCCCCCCCCCC(=O)OC(CCCCCC)CCCCCC)N(CCN1CCN(CCO)CC1)C(=O)CCCCCCCCCC(=O)OC(CCCCCC)CCCCCC (centres unmarked) [Compound B16]	5.42	0.593	57.19	94.62	A (A: ≥2)
CCCCCCCC(C(=O)NCCCCCCCCCC(=O)OC(CCCCCC)CCCCCC)N(CCCN1CCN(CCO)CC1)C(=O)CCCCCCCCCC(=O)OC(CCCCCC)CCCCCC (centres unmarked) [Compound B17]	14.20	0.185	64.2	92.99	A (A: ≥2)
CCCCCCCC(C(=O)NCCCCCCCCCC(=O)OC(CCCCCC)CCCCCC)N(CCCn1ccnc1)C(=O)CCCCCCCCCC(=O)OC(CCCCCC)CCCCCC (centres unmarked) [Compound B20]	−2.36	0.391	93.23	93.73	A (A: ≥2)
CCCCCCCC(C(=O)NCCCCCCCCCC(=O)OC(CCCCCC)CCCCCC)N(CCCNC(=S)N(C)C)C(=O)CCCCCCCCCC(=O)OC(CCCCCC)CCCCCC (centres unmarked) [Compound B21]	6.22	0.388	84.45	93.97	B (B: ≥1 and <2)
CCCCCCCC(C(=O)NCCCCCCCCCC(=O)OC(CCCCCC)CCCCCC)N(CCOC(=O)CCN(C)C)C(=O)CCCCCCCCCC(=O)OC(CCCCCC)CCCCCC (centres unmarked) [Compound B24]	−9.96	0.245	68.83	93.57	A (A: ≥2)
CCCCCCCC(C(=O)NCCCCCCCCCC(=O)OC(CCCCCC)CCCCCC)N(CCOC(=O)CCN1CCCC1)C(=O)CCCCCCCCCC(=O)OC(CCCCCC)CCCCCC (centres unmarked) [Compound B25]	−3.38	0.095	64.2	69.52	A (A: ≥2)

The next lines start with results.

Zeta potential (mV) (LNP zeta potential)	PDI [1]	Size (nm) [1] [nm]	Encapsulation efficiency (%) [2] [%]	SMILES	Relative Total flux (mice)
10.58	0.159	72.08	96.14	CCCCCCCC(C(=O)NCCCCCCCCCC(=O)OC(CCCCCC)CCCCCC)N(CCCN(CCO)CCO)C(=O)CCCCCCCCCC(=O)OCC12CC3CC(CC(C3)C1)C2 (centres unmarked) [Compound B4]	A (A: ≥2)
6.08	0.163	55.64	95.00	CCCCCCCC(C(=O)NCCCCCCCCCC(=O)OC(CCCCCC)CCCCCC)N(CCCN(CCO)CCO)C(=O)CCCCCCCCCC(=O)OCC1CC=CCC1 (centres unmarked) [Compound B5]	A (A: ≥2)
−7.30	0.152	60.47	91.38	CCCCCCCC(C(=O)NCCCCCCCCCC(=O)OC(CCCCCC)CCCCCC)N(CCCN(C)CCO)C(=O)CCCCCCCCCC(=O)OC(CCCCCC)CCCCCC (centres unmarked) [Compound B8]	A (A: ≥2)
2.18	0.166	66.9	46.91	CCCCCCCC(C(=O)NCCCCCCCCCC(=O)OC(CCCCCC)CCCCCC)N(CCCN(CCO)C1CCC1)C(=O)CCCCCCCCCC(=O)OC(CCCCCC)CCCCCC (centres unmarked) [Compound B10]	A (A: ≥2)
−9.69	0.205	70.27	81.83	CCCCCCCC(C(=O)NCCCCCCCCCC(=O)OC(CCCCCC)CCCCCC)N(CCN(CCO)C1CCC1)C(=O)CCCCCCCCCC(=O)OC(CCCCCC)CCCCCC (centres unmarked) [Compound B11]	A (A: ≥2)
−9.02	0.183	65.03	93.45	CCCCCCCC(C(=O)NCCCCCCCCCC(=O)OC(CCCCCC)CCCCCC)N(CCCN(CCO)C1CCCC1)C(=O)CCCCCCCCCC(=O)OC(CCCCCC)CCCCCC (centres unmarked) [Compound B12]	A (A: ≥2)
2.73	0.13	76.67	89.01	CCCCCCCC(C(=O)NCCCCCCCCCC(=O)OC(CCCCCC)CCCCCC)N(CCCN(CCO)C1CCCCC1)C(=O)CCCCCCCCCC(=O)OC(CCCCCC)CCCCCC (centres unmarked) [Compound B14]	A (A: ≥2)
4.79	0.187	80.68	81.99	CCCCCCCC(C(=O)NCCCCCCCCCC(=O)OC(CCCCCC)CCCCCC)N(CCn1ccnc1)C(=O)CCCCCCCCCC(=O)OC(CCCCCC)CCCCCC (centres unmarked) [Compound B18]	A (A: ≥2)
−3.48	0.165	141.8	95.03	CCCCCCCC(C(=O)NCCCCCCCCCC(=O)OC(CCCCCC)CCCCCC)N(CCCNc1c(NC)c(=O)c1=O)C(=O)CCCCCCCCCC(=O)OC(CCCCCC)CCCCCC (centres unmarked) [Compound B22]	B (B: ≥1 and <2)
12.50	0.214	68.16	93.95	CCCCCCCC(C(=O)NCCCCCCCCCC(=O)OC(CCCCCC)CCCCCC)N(COC(=O)CCN(C)C)C(=O)CCCCCCCCCC(=O)OC(CCCCCC)CCCCCC (centres unmarked) [Compound B23]	B (B: ≥1 and <2)

From patent US20260078099A1, “COMPOUND, PREPARATION METHOD THEREOF, AND LIPID NANOPARTICLE AND PHARMACEUTICAL COMPOSITION” (priority 2023, published 2026)
